The values below come from patent US20160271149A1, “[…] COMPOUNDS THAT […] PROTEIN ARGININE […] ACTIVITY FOR REDUCING TUMOR CELL PROLIFERATION” (Epinova Therapeutics Corp., priority 2015, published 2016).

The target of one assay is PRMT5/MEP50 (Homo sapiens, UniProt O14744). The assay is described as follows: Methyltransferase activity screen and profiling, PRMT5/MEP50, substrate Histone H2A. To be noted: for % Enzyme Activity (relative to DMSO controls): PRMT5/MEP50, substrate Histone H2A, single-dose mode, duplicate (Data 1, Data 2), 1 μM SAM, 100 μM; for % Activity / Raw data: PRMT5/MEP50 profiling; for HILLSLOPE: Table 4, PRMT5/MEP50 dose-response curve fit.
Sequence of PRMT5/MEP50 (O14744 whole entry): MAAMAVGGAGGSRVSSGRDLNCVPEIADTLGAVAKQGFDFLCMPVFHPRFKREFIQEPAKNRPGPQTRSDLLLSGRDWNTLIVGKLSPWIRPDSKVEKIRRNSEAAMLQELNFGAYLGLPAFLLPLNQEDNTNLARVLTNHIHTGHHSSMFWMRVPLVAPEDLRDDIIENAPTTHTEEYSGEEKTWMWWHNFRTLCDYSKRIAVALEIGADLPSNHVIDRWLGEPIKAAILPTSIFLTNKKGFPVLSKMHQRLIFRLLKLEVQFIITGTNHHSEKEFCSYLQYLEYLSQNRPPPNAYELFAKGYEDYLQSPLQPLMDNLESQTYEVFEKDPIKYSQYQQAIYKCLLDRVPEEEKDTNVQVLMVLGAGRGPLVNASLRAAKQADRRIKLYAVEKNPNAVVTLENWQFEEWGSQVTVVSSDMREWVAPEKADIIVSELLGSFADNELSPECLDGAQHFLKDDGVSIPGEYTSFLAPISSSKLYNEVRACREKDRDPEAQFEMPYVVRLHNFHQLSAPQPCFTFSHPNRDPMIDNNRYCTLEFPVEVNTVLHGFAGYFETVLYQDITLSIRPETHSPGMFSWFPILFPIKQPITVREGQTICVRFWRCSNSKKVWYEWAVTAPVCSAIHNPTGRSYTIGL
Sequence of PRMT5/MEP50 (Q9BQA1 whole entry partner): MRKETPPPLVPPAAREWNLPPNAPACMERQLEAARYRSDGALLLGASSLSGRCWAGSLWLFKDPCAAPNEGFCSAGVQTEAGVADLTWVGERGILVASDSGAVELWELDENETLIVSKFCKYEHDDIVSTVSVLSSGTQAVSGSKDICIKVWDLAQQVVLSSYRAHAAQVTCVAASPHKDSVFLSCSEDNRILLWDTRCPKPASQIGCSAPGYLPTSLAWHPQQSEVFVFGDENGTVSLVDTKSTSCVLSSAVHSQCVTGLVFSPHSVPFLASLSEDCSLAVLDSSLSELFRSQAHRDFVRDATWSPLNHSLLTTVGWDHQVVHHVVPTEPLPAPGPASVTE

Another assay addresses T1, LXRα (Homo sapiens, UniProt Q13133).
T1 sequence (Q13133 1-447): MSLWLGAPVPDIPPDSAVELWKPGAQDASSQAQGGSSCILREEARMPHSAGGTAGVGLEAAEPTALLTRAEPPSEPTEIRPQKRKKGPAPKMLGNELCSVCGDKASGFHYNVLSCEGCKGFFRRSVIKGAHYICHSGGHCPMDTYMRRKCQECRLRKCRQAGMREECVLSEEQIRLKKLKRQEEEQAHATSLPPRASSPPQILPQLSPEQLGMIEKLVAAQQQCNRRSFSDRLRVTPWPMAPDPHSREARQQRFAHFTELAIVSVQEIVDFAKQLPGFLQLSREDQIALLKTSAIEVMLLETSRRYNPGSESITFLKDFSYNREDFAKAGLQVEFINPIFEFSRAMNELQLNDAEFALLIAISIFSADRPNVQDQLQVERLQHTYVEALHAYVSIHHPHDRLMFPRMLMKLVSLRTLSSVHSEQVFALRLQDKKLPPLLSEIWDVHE
To be noted: human isoform; cited from earlier work.

Another assay has as its target PRMT6 (Homo sapiens, UniProt Q96LA8). The experiment in a line: Methyltransferase activity screen, PRMT6, substrate Histone H3. The conditions noted are these: for % Enzyme Activity (relative to DMSO controls): PRMT6, substrate Histone H3, single-dose mode, duplicate (Data 1, Data 2), 1 μM SAM, 100 μM.
For another assay, the system named is LXR and FXR. To be noted: cited from earlier work.
In a further assay the target is PRMT1 (Homo sapiens, UniProt Q99873). The assay is described as follows: Methyltransferase activity screen, PRMT1, substrate Histone H4. To be noted: single-dose mode, duplicate (Data 1, Data 2), 1 μM SAM, 100 μM.
Sequence of PRMT1 (Q99873 whole entry): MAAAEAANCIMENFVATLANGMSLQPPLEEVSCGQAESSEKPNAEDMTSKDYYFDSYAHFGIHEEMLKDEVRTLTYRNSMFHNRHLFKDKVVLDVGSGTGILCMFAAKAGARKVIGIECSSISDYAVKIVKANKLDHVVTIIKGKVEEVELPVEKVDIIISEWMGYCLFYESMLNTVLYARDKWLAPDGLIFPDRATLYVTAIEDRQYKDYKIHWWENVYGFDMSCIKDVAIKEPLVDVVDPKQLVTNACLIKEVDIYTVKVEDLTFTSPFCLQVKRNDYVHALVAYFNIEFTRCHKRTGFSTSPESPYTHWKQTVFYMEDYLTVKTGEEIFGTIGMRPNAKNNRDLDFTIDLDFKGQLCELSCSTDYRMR
For another assay, the target named is PRMT5 (Homo sapiens, UniProt O14744). The experiment in a line: Methyltransferase activity screen, PRMT5, substrate Histone H2A. The conditions noted are these: for % Enzyme Activity (relative to DMSO controls): PRMT5, substrate Histone H2A, single-dose mode, duplicate (Data 1, Data 2), 1 μM SAM, 100 μM.
Sequence of PRMT5 (O14744 whole entry): as the sequence (O14744 whole entry) above
The target of the next assay is T2, TGR5 (Homo sapiens, UniProt Q8TDU6).
T2 sequence (Q8TDU6 1-330): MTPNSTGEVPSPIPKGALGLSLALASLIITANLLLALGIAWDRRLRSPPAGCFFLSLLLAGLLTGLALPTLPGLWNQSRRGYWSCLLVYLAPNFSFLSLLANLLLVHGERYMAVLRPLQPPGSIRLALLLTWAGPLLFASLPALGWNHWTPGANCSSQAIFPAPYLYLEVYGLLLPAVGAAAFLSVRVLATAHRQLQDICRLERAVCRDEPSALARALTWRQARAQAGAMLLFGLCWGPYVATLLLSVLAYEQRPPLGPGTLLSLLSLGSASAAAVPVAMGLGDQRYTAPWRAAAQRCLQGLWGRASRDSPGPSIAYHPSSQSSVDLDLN
To be noted: cited from earlier work.

Values joined by “and” are separate entries in the source; they are usually repeats but may differ in a detail not shown here. Identical values can stand only once. Counter-ions that a name gives are not always drawn.

Sequence of PRMT6 (Q96LA8 whole entry): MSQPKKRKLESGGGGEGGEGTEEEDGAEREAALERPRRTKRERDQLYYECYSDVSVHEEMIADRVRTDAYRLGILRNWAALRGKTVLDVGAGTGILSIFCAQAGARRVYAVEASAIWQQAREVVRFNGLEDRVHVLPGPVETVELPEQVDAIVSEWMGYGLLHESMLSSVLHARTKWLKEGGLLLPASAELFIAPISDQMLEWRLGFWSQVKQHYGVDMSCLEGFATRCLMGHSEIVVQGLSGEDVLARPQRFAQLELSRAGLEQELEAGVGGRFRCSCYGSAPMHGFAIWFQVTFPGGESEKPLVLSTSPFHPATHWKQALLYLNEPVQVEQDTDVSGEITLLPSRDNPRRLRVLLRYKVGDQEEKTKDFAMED
Method for PRMT1: (§1) A 10 mM DMSO stock solution of each test compound was prepared.
(§2) Compounds were tested in a single-dose mode, in duplicate at the following concentrations.
(§3) Reactions were carried out at 1 μM SAM. The no inhibitor control was set as 100% activity).
Method for PRMT5/MEP50: as §1, §2, §3
Method for PRMT6: as §1, §2, §3

Turning to `Cl.O=C(O)Cc1cccc(OCCCN(Cc2cccc(C(F)(F)F)c2Cl)CC(c2ccccc2)c2ccccc2)c1` [GW 3965, 3-[3-[[[2-chloro-3-(trifluoromethyl)phenyl]methyl](2,2-diphenylethyl)amino]propoxy]-benzeneacetic acid, monohydrochloride], the IC50 (as a rule, the point on the concentration scale where inhibition reaches its midpoint) at PRMT5/MEP50 amounted to 84.2 µM. The “% Enzyme Activity (relative to DMSO controls)” value at PRMT5/MEP50 (monohydrochloride) is 1.54% and 1.23%; at PRMT6 (monohydrochloride), 83.29% and 103.66%; on PRMT1 (monohydrochloride), 6.93% and 4.55%; at PRMT5 (monohydrochloride), 90.29% and 97.35%. Further, the “% Activity” value on PRMT5/MEP50 (Conc. 1.00E−04 M) is on record as 1.47%; at PRMT5/MEP50 (Conc. 1.11E−05 M), 124.34%; on PRMT5/MEP50 (Conc. 1.23E−06 M) it was 105.86%; at PRMT5/MEP50 (Conc. 1.37E−07 M), 103.73%; on PRMT5/MEP50 (Conc. 1.52E−08 M), 95.29%; at PRMT5/MEP50 (Conc. 3.33E−05 M), 137.65%. Further, the “% Activity” value on PRMT5/MEP50 (Conc. 3.70E−06 M) was found to be 112.86%; on PRMT5/MEP50 (Conc. 4.12E−07 M), 103.66%; on PRMT5/MEP50 (Conc. 4.57E−08 M), 99.34%; on PRMT5/MEP50 (Conc. 5.08E−09 M) it was 98.94%. The Raw data on PRMT5/MEP50 (Conc. 1.00E−04 M) was 6431; on PRMT5/MEP50 (Conc. 1.11E−05 M), 544281; at PRMT5/MEP50 (Conc. 1.23E−06 M), 463366; on PRMT5/MEP50 (Conc. 1.37E−07 M), 454053; on PRMT5/MEP50 (Conc. 1.52E−08 M) it was 417100; on PRMT5/MEP50 (Conc. 3.33E−05 M), 602561. In addition, the Raw data on PRMT5/MEP50 (Conc. 3.70E−06 M) was found to be 494019; on PRMT5/MEP50 (Conc. 4.12E−07 M) it was 453763; on PRMT5/MEP50 (Conc. 4.57E−08 M), 434862; at PRMT5/MEP50 (Conc. 5.08E−09 M) it was 433085. Moreover, on PRMT5/MEP50, the HILLSLOPE was −24.99. The EC50 (usually the concentration at which the effect is half-maximal) at LXRα is 0.29 µM. Further, in the assay with LXR and FXR, the “affinity for LXR and FXR” value is “nanomolar affinity”.
As to `CC(C)c1onc(-c2c(Cl)cccc2Cl)c1COc1ccc(C=Cc2cccc(C(=O)O)c2)c(Cl)c1` [GW 4064, 3-[2-[2-chloro-4-[[3-(2,6-dichlorophenyl)-5-(1-methylethyl)-4-isoxazolyl]methoxy]phenyl]ethenyl]-benzoic acid], the IC50 against PRMT5/MEP50 amounted to 79.2 µM. In addition, the “% Activity” value at PRMT5/MEP50 (Conc. 1.00E−04 M) was found to be 5.70%; on PRMT5/MEP50 (Conc. 1.11E−05 M) it was 117.75%; at PRMT5/MEP50 (Conc. 1.23E−06 M) it was 105.80%; on PRMT5/MEP50 (Conc. 1.37E−07 M) it was 99.86%; at PRMT5/MEP50 (Conc. 1.52E−08 M) it was 96.95%; at PRMT5/MEP50 (Conc. 3.33E−05 M), 120.51%. Moreover, the “% Activity” value on PRMT5/MEP50 (Conc. 3.70E−06 M) amounted to 103.51%; on PRMT5/MEP50 (Conc. 4.12E−07 M), 99.48%; on PRMT5/MEP50 (Conc. 4.57E−08 M) it was 97.26%; at PRMT5/MEP50 (Conc. 5.08E−09 M) it was 94.60%. For the same molecule, the Raw data is given as 24954 on PRMT5/MEP50 (Conc. 1.00E−04 M); 515444 at PRMT5/MEP50 (Conc. 1.11E−05 M); 463109 at PRMT5/MEP50 (Conc. 1.23E−06 M); 437127 on PRMT5/MEP50 (Conc. 1.37E−07 M); 424387 at PRMT5/MEP50 (Conc. 1.52E−08 M); 527528 on PRMT5/MEP50 (Conc. 3.33E−05 M). The Raw data amounted to 453113 on PRMT5/MEP50 (Conc. 3.70E−06 M), 435450 on PRMT5/MEP50 (Conc. 4.12E−07 M), 425743 on PRMT5/MEP50 (Conc. 4.57E−08 M) and 414110 on PRMT5/MEP50 (Conc. 5.08E−09 M). In addition, the HILLSLOPE on PRMT5/MEP50 is listed as −12.23. Also, the “affinity for LXR and FXR” value in the assay on LXR and FXR is listed as “nanomolar affinity”.
Take `Cc1onc(-c2ccccc2Cl)c1C(=O)N(C)c1ccc(Cl)cc1` [TGR5 agonist, 3-(2-chlorophenyl)-N-(4-chlorophenyl)-N,5-dimethyl-4-isoxazolecarboxamide]: the “% Enzyme Activity (relative to DMSO controls)” value on PRMT5/MEP50 was 90.97% and 82.32%; on PRMT6, 70.12% and 73.79%; at PRMT1, 100.02% and 92.67%; on PRMT5 it was 84.41% and 87.02%. Also, the “pEC50, activator of TGR5” value on TGR5 was 6.8-7.5.
In the case of `CN(CCOc1ccc(CC2SC(=O)NC2=O)cc1)c1ccccn1` (stereo not drawn) [Rosiglitazone, 5-[[4-[2-(methyl-2-pyridinylamino)ethoxy]phenyl]methyl]-2,4-thiazolidinedione], the “inhibition of PRMT5” value against PRMT5 (at a concentration of 100 μM) is “no effect”.
Consider `Nc1ncnc2c1ncn2[C@@H]1O[C@H](CSCC[C@H](N)C(=O)O)[C@@H](O)[C@H]1O` [SAH, S-(5′-Adenosyl)-L-homocysteine], for which the “% Activity” value at PRMT5/MEP50 (Conc. 1.00E−04 M) is 5.40%; at PRMT5/MEP50 (Conc. 1.11E−05 M), 23.32%; at PRMT5/MEP50 (Conc. 1.23E−06 M) it was 61.44%; on PRMT5/MEP50 (Conc. 1.37E−07 M), 87.83%; at PRMT5/MEP50 (Conc. 1.52E−08 M), 90.12%; at PRMT5/MEP50 (Conc. 3.33E−05 M) it was 11.73%. For the same molecule, the “% Activity” value at PRMT5/MEP50 (Conc. 3.70E−06 M) was 42.02%; at PRMT5/MEP50 (Conc. 4.12E−07 M), 72.99%; at PRMT5/MEP50 (Conc. 4.57E−08 M), 96.88%; on PRMT5/MEP50 (Conc. 5.08E−09 M) it was 91.72%. The Raw data is 23637 at PRMT5/MEP50 (Conc. 1.00E−04 M); 102087 on PRMT5/MEP50 (Conc. 1.11E−05 M); 268933 at PRMT5/MEP50 (Conc. 1.23E−06 M); 384445 on PRMT5/MEP50 (Conc. 1.37E−07 M); 394475 at PRMT5/MEP50 (Conc. 1.52E−08 M); 51347 at PRMT5/MEP50 (Conc. 3.33E−05 M). Besides, the Raw data on PRMT5/MEP50 (Conc. 3.70E−06 M) was 183946; at PRMT5/MEP50 (Conc. 4.12E−07 M), 319517; on PRMT5/MEP50 (Conc. 4.57E−08 M), 424069; at PRMT5/MEP50 (Conc. 5.08E−09 M) it was 401476. Also, the HILLSLOPE on PRMT5/MEP50 is −0.78. Moreover, the half-inhibitory concentration (IC50) on PRMT6 was 0.623 µM.
Regarding `CC[C@H]1[C@@H](O)[C@@H]2[C@H](CC[C@]3(C)[C@@H]([C@H](C)CCC(=O)O)CC[C@@H]23)[C@@]2(C)CC[C@@H](O)C[C@@H]12` [INT-747, 6α-Ethyl-chenodeoxycholic acid], the “% Enzyme Activity (relative to DMSO controls)” value on PRMT5/MEP50 is 95.73% and 93.91%; on PRMT6 it was 312.24% and 288.93%; at PRMT1 it was 112.72% and 115.42%; on PRMT5 it was 106.35% and 105.51%.
On to `CN(C)C(=N)N=C(N)N` [Metformin, N, N-dimethyl-imidodicarbonimidic diamide, monohydrochloride], for which the “% Enzyme Activity (relative to DMSO controls)” value at PRMT5/MEP50 (monohydrochloride) was 88.20% and 82.84%; on PRMT6 (monohydrochloride) it was 90.66% and 90.30%; on PRMT1 (monohydrochloride), 100.50% and 101.26%; on PRMT5 (monohydrochloride), 98.74% and 84.85%.
